According to patent US10736897B2, “Compounds and methods of use thereof for treatment of cancer” (Araxes Pharma LLC, priority 2017, dated 2020):

The compounds below were run against T1, KRAS G12C 1-169, his-tagged protein, GDP-loaded (Homo sapiens, UniProt P01116, G12C) (assay: Biochemical assay: covalent modification of KRAS G12C measured by mass spectrometry (RapidFire/TOF or Q-Exactive)). Settings: Modification Activity; modification percentage from deconvoluted MS peak intensities; compound concentration and incubation time for Table 2 not stated.
T1 construct: KRAS G12C 1-169, his-tagged protein, GDP-loaded; His tag
Assay type: binding
Description: Test compounds are prepared as 10 mM stock solutions in DMSO (Fisher cat # BP-231-100). KRAS G12C 1-169, his-tagged protein, GDP-loaded is diluted to 2 μM or 0.5 μM in buffer (20 mM Hepes, 150 mM NaCl, 1 mM MgCl2). Compounds are tested for activity as follows:
Compounds are diluted to 50× final test concentration in DMSO in 96-well storage plates. Compound stock solutions are vortexed before use and observed carefully for any sign of precipitation. Dilutions are as follow: • For 100 μM final compound concentration, compounds are diluted to 5000 μM (5 μL 10 mM compound stock+5 μL DMSO and mixed well by pipetting. • For 30 μM final compound concentration, compounds are diluted to 1500 μM (3 μL 10 mM compound stock+17 μL DMSO) and mixed well by pipetting. • For 10 μM final compound concentration, compounds are diluted to 500 μM (2 μL 10 mM compound stock+38 μL DMSO) and mixed well by pipetting. 49 μL of the stock protein solution is added to each well of a 96-well PCR plate (Fisher cat #1423027). 1 μl of the diluted 50× compounds are added to appropriate wells in the PCR plate using 12-channel pipettor. Reactions are mixed carefully and thoroughly by pipetting up/down with a 200 μL multi-channel pipettor. The plate is sealed well with aluminum plate seal, and stored in drawer at room temperature for 10 minutes, 30 minutes, 2 hours or 24 hours. 5 μL of 2% formic acid (Fisher cat # A117) in de-ionized H2O is then added to each well followed by mixing with a pipette. The plate is then resealed with aluminum seal and stored on dry ice until analyzed as described below.
The above described assays are analyzed by mass spectrometry according to one of the following two procedures:
The MS instrument is set to positive polarity, 2 GHz resolution, and low mass (1700) mode and allowed to equilibrate for 30 minutes. The instrument is then calibrated, switched to acquisition mode and the appropriate method loaded.
After another 30 minute equilibration time, a blank batch (i.e., buffer) is run to ensure equipment is operating properly. The samples are thawed at 37° C. for 10 minutes, briefly centrifuged, and transfer to the bench top. Wells A1 and H12 are spiked with 1 μL 500 μM internal standard peptide, and the plates centrifuged at 2000×g for 5 minutes. The method is then run and masses of each individual well recorded.
The masses (for which integration data is desired) for each well are pasted into the platemap and exported from the analysis. Masses for the internal standards are exported as well. The data at 50 ppm is extracted for the +19 charge state, and identity of well A1 is assigned using the internal standard spike and integrated. Peak data is exported as a TOF list and the above steps are repeated individually, for the +20, 21, 22, 23, 24, and 25 charge states.
The masses and peak intensities of KRAS G12C protein species are measured using a Dionex RSLCnano system (Thermo Scientific) connected to a Q Exactive Plus mass spectrometer (Thermo Scientific).
[…] of sample is each loaded onto a Aeris™ 3.6 μm WIDEPORE C4 200 Å, LC Column 50×2.1 mm column maintained at 40° C. at a flow rate of 600 μL/min with […] (0.1% formic acid in acetonitrile). The liquid chromatography conditions are 20% solvent B for 1 minute, 20% to 60% solvent B for 1.5 minutes, 60% to 90% solvent for 0.5 minute, 90% solvent B for 0.2 minute, 90% to 20% solvent B for 0.2 minute, and then equilibrated for 1.6 minute before the following sample injection. The flow rate is maintained at 600 μL/min throughout the sample analysis.
The mass spectrometer is operated in profile mode at a resolution of 17500, 5 microscans, using 50 msec max injection time and an AGC target of 1×10^6, and a full mass range from 800-1850 m/z is recorded. The HCD trapping gas is optimized for maximum sensitivity for intact proteins. […]

| Compound | Binding % |
| --- | --- |
| C=CC(=O)N1CCN(c2cnnc3cc(-c4c(C)ccc5cnn(C)c45)c(Cl)cc23)CC1 [Compound 15, 1-(4-(6-chloro-7-(1,6-dimethyl-1H-indazol-7-yl)cinnolin-4-yl)piperazin-1-yl)prop-2-en-1-one] | + (+ indicates binding activity greater than 0% and up to 50%) |
| C=CC(=O)N1C[C@H](C)N(c2ncnc3c(F)c(-c4c(C)ccc5cnn(C)c45)c(Cl)cc23)C[C@H]1C (atropisomer, axis not shown) [Compound 8, 1-((2R,5S)-4-((R)-6-chloro-7-(1,6-dimethyl-1H-indazol-7-yl)-8-fluoroquinazolin-4-yl)-2,5-dimethylpiperazin-1-yl)prop-2-en-1-one] | +++ (+++ indicates binding activity greater than 85%) |
| C=CC(=O)N1CCN(c2c(C#N)cnc3c(F)c(-c4c(C)ccc5[nH]nc(C6CC6)c45)c(Cl)cc23)CC1 [Compound 13, 4-(4-acryloylpiperazin-1-yl)-6-chloro-7-(3-cyclopropyl-5-methyl-1H-indazol-4-yl)-8-fluoroquinoline-3-carbonitrile] | +++ (+++ indicates binding activity greater than 85%) |
| C=CC(=O)N1CCN(c2ncnc3c(F)c(-c4c(C)ccc5[nH]nc(C)c45)c(Cl)cc23)CC1CC#N (stereo not shown) [Compound 31, 2-(1-acryloyl-4-(6-chloro-7-(3,5-dimethyl-1H-indazol-4-yl)-8-fluoroquinazolin-4-yl)piperazin-2-yl)acetonitrile] | +++ (+++ indicates binding activity greater than 85%) |
| C=CC(=O)N1C[C@H](C)N(c2c(C#N)cnc3c(F)c(-c4c(C)ccc5cnn(C6CC6)c45)c(Cl)cc23)C[C@H]1C [Compound 20, 4-((2S,5R)-4-acryloyl-2,5-dimethylpiperazin-1-yl)-6-chloro-7-(1-cyclopropyl-6-methyl-1H-indazol-7-yl)-8-fluoroquinoline-3-carbonitrile] | + (+ indicates binding activity greater than 0% and up to 50%) |
| C=CC(=O)N1[C@H](C)CN(c2c(C#N)cnc3c(F)c(-c4c(C)ccc5cnn(C)c45)c(Cl)cc23)C[C@@H]1C [Compound 22, 4-((3S,5R)-4-acryloyl-3,5-dimethylpiperazin-1-yl)-6-chloro-7-(1,6-dimethyl-1H-indazol-7-yl)-8-fluoroquinoline-3-carbonitrile] | ++ (++ indicates binding activity from 50 to 85%) |
| C=CC(=O)N1C[C@H](C)N(c2ncnc3c(F)c(-c4c(C)ccc5[nH]nc(N)c45)c(Cl)cc23)C[C@H]1C [Compound 6, 1-((2R,5S)-4-((S)-7-(3-amino-5-methyl-1H-indazol-4-yl)-6-chloro-8-fluoroquinazolin-4-yl)-2,5-dimethylpiperazin-1-yl)prop-2-en-1-one] | + (+ indicates binding activity greater than 0% and up to 50%) |
| C=CC(=O)N1CCN(c2cnnc3cc(-c4c(C)ccc5cnn(C6CC6)c45)c(Cl)cc23)CC1 [Compound 16, 1-(4-(6-chloro-7-(1-cyclopropyl-6-methyl-1H-indazol-7-yl)cinnolin-4-yl)piperazin-1-yl)prop-2-en-1-one] | + (+ indicates binding activity greater than 0% and up to 50%) |
| C=CC(=O)N1CCN(c2c(C#N)cnc3c(F)c(-c4c(C)ccc5[nH]nc(C)c45)c(Cl)cc23)CC1CC#N (stereo not shown) [Compound 30, 4-(4-acryloyl-3-(cyanomethyl)piperazin-1-yl)-6-chloro-7-(3,5-dimethyl-1H-indazol-4-yl)-8-fluoroquinoline-3-carbonitrile] | +++ (+++ indicates binding activity greater than 85%) |
| C=CC(=O)N1CCN(c2cnnc3cc(-c4c(C)ccc5[nH]nc(C)c45)c(Cl)cc23)CC1 [Compound 17, 1-(4-(6-chloro-7-(3,5-dimethyl-1H-indazol-4-yl)cinnolin-4-yl)piperazin-1-yl)prop-2-en-1-one] | + (+ indicates binding activity greater than 0% and up to 50%) |
| C=CC(=O)N1C[C@H](C)N(c2ncnc3c(F)c(-c4c(C)ccc5cnn(C)c45)c(Cl)cc23)C[C@H]1C [Compound 7, 1-((2R,5S)-4-((S)-6-chloro-7-(1,6-dimethyl-1H-indazol-7-yl)-8-fluoroquinazolin-4-yl)-2,5-dimethylpiperazin-1-yl)prop-2-en-1-one] | + (+ indicates binding activity greater than 0% and up to 50%) |
| C=CC(=O)N1C[C@H](C)N(c2c(C#N)cnc3c(F)c(-c4c(C)ccc5[nH]nc(C)c45)c(Cl)cc23)C[C@H]1C [Compound 21, 4-((2S,5R)-4-acryloyl-2,5-dimethylpiperazin-1-yl)-6-chloro-7-(3,5-dimethyl-1H-indazol-4-yl)-8-fluoroquinoline-3-carbonitrile] | + (+ indicates binding activity greater than 0% and up to 50%) |
| C=CC(=O)N1C[C@H](C)N(c2ncnc3c(F)c(-c4c(C)ccc5[nH]nc(N)c45)c(Cl)cc23)C[C@H]1C [Compound 5, 1-((2R,5S)-4-((R)-7-(3-amino-5-methyl-1H-indazol-4-yl)-6-chloro-8-fluoroquinazolin-4-yl)-2,5-dimethylpiperazin-1-yl)prop-2-en-1-one] | ++ (++ indicates binding activity from 50 to 85%) |
| C=CC(=O)N1CCN(c2cc(C#N)nc3c(F)c(-c4c(C)ccc5[nH]nc(C)c45)c(Cl)cc23)CC1 [Compound 29, 4-(4-acryloylpiperazin-1-yl)-6-chloro-7-(3,5-dimethyl-1H-indazol-4-yl)-8-fluoroquinoline-2-carbontrile] | ++ (++ indicates binding activity from 50 to 85%) |
| C=CC(=O)N1CCN(c2c(C#N)c(OCCCN(C)C)nc3c(F)c(-c4c(C)ccc5cnn(C)c45)c(Cl)cc23)CC1 [Compound 27, 4-(4-acryloylpiperazin-1-yl)-6-chloro-7-(1,6-dimethyl-1H-indazol-7-yl)-2-(3-(dimethylamino)pro-poxy)-8-fluoroquinoline-3-carbonitrile] | +++ (+++ indicates binding activity greater than 85%) |
| C=CC(=O)N1CCN(c2c(C#N)cnc3c(F)c(-c4c(C)ccc5cnn(C6CC6)c45)c(Cl)cc23)C[C@H]1C [Compound 26, 4-((R)-4-acryloyl-3-methylpiperazin-1-yl)-6-chloro-7-(1-cyclopropyl-6-methyl-1H-indazol-7-yl)-8-fluoroquinoline-3-carbonitrile] | +++ (+++ indicates binding activity greater than 85%) |
| C=CC(=O)N1CCN(c2c(C#N)cnc3c(F)c(-c4c(C)ccc5[nH]nc(C)c45)c(Cl)cc23)CC1 [Compound 12, 4-(4-acryloylpiperazin-1-yl)-6-chloro-7-(3,5-dimethyl-1H-indazol-4-yl)-8-fluoroquinoline-3-carbonitrile] | ++ (++ indicates binding activity from 50 to 85%) |
| C=CC(=O)N1CCN(c2cc(C(F)(F)F)nc3c(F)c(-c4c(C)ccc5[nH]nc(C)c45)c(Cl)cc23)CC1 [Compound 25, 1-(4-(6-chloro-7-(3,5-dimethyl-1H-indazol-4-yl)-8-fluoro-2-(trifluoromethyl)quino-lin-4-yl)piperazin-1-yl)prop-2-en-1-one] | + (+ indicates binding activity greater than 0% and up to 50%) |
| C=CC(=O)N1CCN(c2c(C#N)cnc3c(F)c(-c4c(C)ccc5cnn(C)c45)c(Cl)cc23)CC1 [Compound 11, 4-(4-acryloylpiperazin-1-yl)-6-chloro-7-(1,6-dimethyl-1H-indazol-7-yl)-8-fluoroquinoline-3-carbonitrile] | +++ (+++ indicates binding activity greater than 85%) |
